The test system of one data set is FGF receptors. Particulars: Yeh et al; cited from earlier work.
The next data set has as its system IL-1α synthesis. Kind of data set: PHA stimulated human whole blood cytokine synthesis: IL-1α. Particulars: 0.01 μM, days 1-4. Format: cell-based. Here is the method:
(§1) Blood was taken from a healthy young volunteer, into heparin Vacutainers®. Whole-blood was diluted to give a final concentration of 1/10 in culture medium (CM). CM consisted of RPMI 1640 with L-glutamine, penicillin and streptomycin. PHA (phytohaemagglutinin) solution and N-acetyl-β,β-diglucosylamine octasulphate (DOS) and PHA solution were added to non-control samples. Final drug concentrations tested were 100 μM, 1 μM, 0.1 μM and 0.01 μM. All samples were tested in triplicate.
(§2) Reagents were placed in four sets of 24-well (6×4) flat-bottomed plates (Corning US) and incubated for 1, 2, 3 and 4 days respectively (incubator conditions: 37° C., humid and 5% CO2). […]
(§3) The protocol of Lagrelius et al. was followed (Cytokine, 2006, 33, pp. 156-165). The culture supernatants were analysed once for concentrations of IL-1α, IL-1β, IL-2, IL-4, IL-5, IL-6, IL-7, IL-10, IL-12, IL-13, IL-17, IFNγ, GCSF, GM-CSF, MCP-1, RANTES, VEGF and TNFα. The cytokines were measured simultaneously using a Bio-Plex assay. […] A monoclonal antibody specific for each cytokine of interest is coupled onto a particular set of beads with a known internal fluorescence, and several combinations of cytokine antibody coated beads can be included and thus multiple cytokines are measured simultaneously. […] A minimum of 100 beads per region were analysed. […]

For another data set, the system named is IL-1β synthesis. Kind of data set: PHA stimulated human whole blood cytokine synthesis: IL-1β. Format: cell-based. Particulars: 0.01 μM, days 1-4. The protocol: as §1, §2, §3
Another data set relates to GCSF synthesis. Kind of data set: PHA stimulated human whole blood cytokine synthesis: GCSF. It is filed as cell-based. Conditions: 0.01 μM, days 1-4. Here is the method:
as §1, §2, §3

For a further data set, the system named is IL-4 synthesis. Kind of data set: PHA stimulated human whole blood cytokine synthesis: IL-4. Conditions: 0.01 μM, days 1-4. It is filed as cell-based. Here is the method:
as §1, §2, §3

In a further data set the test system is IFNγ synthesis. Kind of data set: PHA stimulated human whole blood cytokine synthesis: IFNγ. Format: cell-based. Particulars: 0.01 μM, days 1-4. The protocol: as §1, §2, §3
The next data set has as its system VEGF synthesis. Kind of data set: PHA treated human whole blood cytokine synthesis: VEGF. It is filed as cell-based. Conditions: 0.01 μM; human whole blood in which VEGF synthesis has been inhibited by PHA; days 1-4. Here is the method:
as §1, §2, §3

For data set [1], the system named is TNFα synthesis. Kind of data set: PHA stimulated human whole blood cytokine synthesis: TNFα. Format: cell-based. Conditions: 0.01 μM, days 1-4, Bio-Plex. Here is the method:
as §1, §2, §3

Another data set deals with IL-6 synthesis. Kind of data set: PHA stimulated human whole blood cytokine synthesis: IL-6. It is filed as cell-based. Particulars: 0.01 μM, days 1-4. The protocol: as §1, §2, §3
The next data set has as its system IL-7 synthesis. Kind of data set: PHA stimulated human whole blood cytokine synthesis: IL-7. Conditions: 0.01 μM, days 1-4. Format: cell-based. Here is the method:
as §1, §2, §3

A further data set has as its system IL-2 synthesis. Kind of data set: PHA stimulated human whole blood cytokine synthesis: IL-2. Format: cell-based. Particulars: 0.01 μM, days 1-4. The protocol:
as §1, §2, §3

The subject of data set [2] is TNFα synthesis. Kind of data set: LPS stimulated U937 macrophage TNFα synthesis. It is filed as cell-based, human. Conditions: PMA differentiated U937; 80 nM lps 72 hours; 0.10, 1.00, 10.00 and 100.00 μM. The protocol: U937 human monocytes were incubated with 5 μg/ml PMA (phorbol myristate acetate) for 5 days in order to induce differentiation. N-acetyl-β,β-diglucosylamine octasulphate (DOS) was added to the macrophages produced at concentrations of 0 (control), 0.10, 1.00, 10.00 and 100.00 μM.

The subject of the next data set is GM-CSF synthesis. Kind of data set: PHA stimulated human whole blood cytokine synthesis: GM-CSF. It is filed as cell-based. Conditions: 0.01 μM, days 1-4. Here is the method: as §1, §2, §3
The test system of data set [3] is TNFα synthesis. Kind of data set: TNFα synthesis in whole blood stimulated with 5 μg/ml PHA. Format: cell-based. Conditions: human whole blood 1:10, 5 μg/ml PHA for 4 days; 0.01, 0.1 or 1 μM; ELISA days 1-4. The protocol:
Human whole blood was diluted 1:10 in RPMI and stimulated with 5 μg/ml phytohaemagglutinin (PHA) for 4 days in the absence or presence of N-acetyl-β,β-diglucosylamine octasulphate (DOS) or N-acetyl-β,β-diglucosylamine oligosulphate 1200 at concentrations of 0.01, 0.1 or 1 μM. The TNFα concentrations were assayed by ELISA on days 1, 2, 3 and 4.

A further data set has as its system IL-17 synthesis. Kind of data set: PHA stimulated human whole blood cytokine synthesis: IL-17. Format: cell-based. Particulars: 0.01 μM, days 1-4. Here is the method:
as §1, §2, §3

Another data set concerns IL-13 synthesis. Kind of data set: PHA stimulated human whole blood cytokine synthesis: IL-13. It is filed as cell-based. Particulars: 0.01 μM, days 1-4. Here is the method: as §1, §2, §3
For the next data set, the system named is IL-10 synthesis. Kind of data set: PHA stimulated human whole blood cytokine synthesis: IL-10. It is filed as cell-based. Conditions: 0.01 μM, days 1-4. Here is the method: as §1, §2, §3
The test system of a further data set is IL-5 synthesis. Kind of data set: PHA stimulated human whole blood cytokine synthesis: IL-5. It is filed as cell-based. Particulars: 0.01 μM, days 1-4. Here is the method:
as §1, §2, §3

For data set [4] the following is noted: Cahalon et al; cited from earlier work.
A further data set deals with interleukin-10 synthesis. Particulars: antigen stimulated mice spleen cells in vitro; cited from earlier work.
A further data set deals with feline herpes infection. Particulars: reactivation of feline herpes infection; Roberts et al; cited from earlier work.
Another data set deals with interleukin-2 synthesis. Conditions: antigen stimulated mice spleen cells in vitro; cited from earlier work.
A further data set relates to articular inflammation. Conditions: cited from earlier work.
For data set [5] the following is noted: acid conditions of the stomach; cited from earlier work.
For the next data set, the system named is IFN synthesis. Conditions: antigen stimulated mice spleen cells in vitro; cited from earlier work.
Data set [6] deals with antigen stimulated mice spleen cells. Particulars: in vitro; cited from earlier work.
A further data set concerns β-glucosidases. Particulars: Kolarova et al; cited from earlier work.
Data set [7] addresses pro-inflammatory chemokine MCP-1 (Homo sapiens, UniProt P13500). Conditions: Yonghao et al; cited from earlier work.
Data set [8] relates to C-type lectin-like domain of a recombinant natural killer cell receptor. Particulars: Kogelberg et al; cited from earlier work.
A further data set addresses hepatocyte growth factor (Homo sapiens, UniProt P14210). Particulars: Zhou et al; cited from earlier work.
Another data set addresses follistatin (Rattus norvegicus, UniProt P21674). Conditions: Innis et al; cited from earlier work.
Another data set deals with inflamed joints. Conditions: Ronca et al; cited from earlier work.

follistatin, sequence (P21674 93-165 limits assumed): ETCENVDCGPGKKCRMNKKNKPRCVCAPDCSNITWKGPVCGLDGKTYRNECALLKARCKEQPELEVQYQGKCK
hepatocyte growth factor, sequence (P14210 31-127 limits assumed, species assumed): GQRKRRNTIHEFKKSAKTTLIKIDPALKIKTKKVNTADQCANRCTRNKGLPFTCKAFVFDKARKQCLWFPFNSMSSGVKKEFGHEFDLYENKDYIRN
pro-inflammatory chemokine MCP-1, sequence (P13500 24-99): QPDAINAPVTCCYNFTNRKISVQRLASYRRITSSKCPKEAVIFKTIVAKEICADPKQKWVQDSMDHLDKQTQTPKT

On to 2-hydroxysucrose heptasulphate, for which the “FGF dependent dimerisation of FGF receptors” value (“FGF dependent dimerisation” for short) in the data set on FGF receptors is listed as “much lesser extent”.

On to 4,6-dihydroxysucrose hexasulphate, for which the “FGF dependent dimerisation” value with FGF receptors is “not at all”.

Consider `CC(=O)N([C@@H]1O[C@H](COS(=O)(=O)O)[C@@H](OS(=O)(=O)O)[C@H](OS(=O)(=O)O)[C@H]1OS(=O)(=O)O)[C@@H]1O[C@H](COS(=O)(=O)O)[C@@H](OS(=O)(=O)O)[C@H](OS(=O)(=O)O)[C@H]1OS(=O)(=O)O` [N-acetyl-β,β-diglucosylamine octasulphate], for which the “PHA stimulated synthesis of IL-1α” value with IL-1α synthesis is given as “inhibits”. Also, the “PHA stimulated synthesis of IL-1β” value with IL-1β synthesis is listed as “inhibits”. Moreover, in the data set with GCSF synthesis, the “PHA stimulated synthesis of GCSF” value is listed as “inhibits”. Also, the “PHA stimulated synthesis of IL-4” value in the data set on IL-4 synthesis was “inhibits”. In the data set with IFNγ synthesis, the “PHA stimulated synthesis of IFNγ” value is reported as “inhibits”. In the data set on VEGF synthesis, the “level of VEGF” value is reported as “increased”. Also, the “PHA stimulated synthesis of TNFα” value with TNFα synthesis [1] is listed as “inhibits”. Also, the “PHA stimulated synthesis of IL-6” value with IL-6 synthesis is reported as “inhibits”. Moreover, the “level of IL-7” value in the data set with IL-7 synthesis is on record as “increased”. Besides, the “PHA stimulated synthesis of IL-2” value in the data set with IL-2 synthesis is given as “inhibits”. Also, the “inhibition of TNFα synthesis” value in the data set on TNFα synthesis [2] is “inhibited TNFα synthesis at all concentrations down to 0.1 μM”; in the data set on TNFα synthesis [3], “effectively inhibit TNFα synthesis”. The “PHA stimulated synthesis of GM-CSF” value in the data set on GM-CSF synthesis is “inhibits”. Further, in the data set on IL-17 synthesis, the “PHA stimulated synthesis of IL-17” value is “inhibits”. Further, the “PHA stimulated synthesis of IL-13” value with IL-13 synthesis was “inhibits”. Moreover, the “PHA stimulated synthesis of IL-10” value in the data set on IL-10 synthesis is “inhibits”. For the same compound, the “PHA stimulated synthesis of IL-5” value with IL-5 synthesis was “inhibits”.

As to `CC(=O)N[C@H]1C(O)O[C@H](CO)[C@@H](O[C@@H]2OC(C(=O)O)=C[C@H](O)[C@H]2O)[C@@H]1O` (stereo partly drawn) [desulphated heparin disaccharide, O-(α-L-ido-4-enepyranosyluronic acid)-(1→4)-2-deoxy-N-acetyl-D-glucoseamine], in data set [4], the “effectiveness as an anti-inflammatory agent” value is recorded as “ineffective”.

`OC[C@H]1O[C@@H](N[C@@H]2O[C@H](CO)[C@@H](O)[C@H](O)[C@H]2O)[C@H](O)[C@@H](O)[C@@H]1O` [di-β-D-glucosylamine]: the interleukin-10 synthesis result with interleukin-10 synthesis is recorded as “inhibits”. The “development of ocular inflammation” value in the data set on feline herpes infection is on record as “prevents the development of ocular inflammation”. Also, the interleukin-2 synthesis entry in the data set on interleukin-2 synthesis is on record as “inhibits”. Also, in the data set on articular inflammation (mice, parenteral routes, Bolton et al), the articular inflammation entry was “inhibits articular inflammation”. For the same compound, in the data set on articular inflammation (oral route), the “activity by the oral route” value is “inactive”. Besides, the “hydrolysis of the glycosylamine group” value in data set [5] is on record as “readily hydrolysed”. In addition, the IFN synthesis entry in the data set with IFN synthesis is recorded as “inhibits”. Further, the “antigen induced immune cell proliferation” value in [6] was “inhibits”. The “inhibition of β-glucosidases” value in the data set with β-glucosidases is “inhibit β-glucosidases”.

As for `O=S(=O)(O)OC[C@H]1O[C@@](COS(=O)(=O)O)(O[C@H]2O[C@H](COS(=O)(=O)O)[C@@H](OS(=O)(=O)O)[C@H](OS(=O)(=O)O)[C@H]2OS(=O)(=O)O)[C@@H](OS(=O)(=O)O)[C@@H]1OS(=O)(=O)O` [sucrose octasulphate], the “FGF dependent dimerisation” value in the data set on FGF receptors is recorded as “induced FGF dependent dimerisation of FGF receptors”. Also, the “binding to MCP-1” value in [7] was “bind”. Besides, the “binding to natural killer cell receptor C-type lectin-like domain” value in data set [8] is on record as “bind”. For the same compound, the “binding to hepatocyte growth factor” value at hepatocyte growth factor is on record as “bind”. In addition, the binding to follistatin result on follistatin was “bind”.

For chondroitin sulphate, in the data set with inflamed joints, the “inflammatory cell accumulation and inflammation” value was “reduces inflammatory cell accumulation and inflammation”.
